Laboratory results from patent publication US5025036A, “Catechol carboxylic acids” (Hoffmann-La Roche Inc., priority 1989, dated 1991).
Structures can show the parent of a compound that is named as a salt.

Tests used:
ear edema = assay: Mouse Ear Edema Test (In Vivo), arachidonic acid; set-up: species or system CD-1 male mice; settings: topical, 1 h, at 1 mg topically
Source text: Invest. Dermatol. 80:48 (1983) and Hames, Opas and Bonney, "Arachidonic Acid Metabolites in Mouse Ear Edema" Advances in Inflammation Research, 11:57 (1986). […] CD-1 male mice weighing 15 to 25 g were employed, and they were designated as follows: (1) Control Group, in which no arachidonic acid or test compound was to be applied, (2) Arachidonic Acid-Treated Group, in which no test compound was to be applied, and (3) Treated Group, in which the test compound was to be applied first, followed by the application of arachidonic acid. In the case of the Group (3) animals, the test compound, dissolved in acetone, was applied to the dorsal surface of the right ear of the mouse with a 25-microliter pipettor, with the dose of the test compound being varied. After 0.5 hours in some cases and 4 hours in others, the arachidonic acid was topically applied in the same manner as above to the pretreated ear areas. In each case of arachidonic acid application, an amount of 0.5 mg dissolved in 25 microliters of acetone was used. After 1 hour, the mice were sacrificed by carbon dioxide inhalation. A 6 mm-diameter standard biopsy punch was used to obtain a uniform tissue sample from the ear of each mouse so treated, and the tissue samples were weighed to the nearest 0.1 mg. The percent inhibition of ear edema formation was calculated as follows: [formula]

Carrageenan pleurisy = assay: Carrageenan Pleurisy Test (In Vivo); set-up: species or system male Lewis rats; settings: Rattus norvegicus, po; at 100 mg/kg p.o; read-out: Rat Carrageenan Pleurisy % Inhib. of Exudate Volume
Method: The animals utilized in these studies were male Lewis rats (Charles River Breeding Laboratories) weighing between 230-250 g. […] At 5 or 24 hours after CG injection, the rats were killed by decapitation, exsanguinated, and the pleural cavity exposed by cutting the ribs on both sides of the sternum. The exudate fluid was removed from the pleural cavity with disposable plastic pipettes and its volume quantitated. The pleural cavity was then washed once with phosphate buffered saline containing fetal bovine serum (1:1) and the washings combined with the exudate. The total number of cells in the pleural cavity was quantitated using a Coulter Counter (Model ZM) adjusted to exclude any contaminating RBC. (Published in "Plant Flavonoids in Biology & Medicine: Biochemical, Pharmacological and Structure-Activity Relationships" p. 231-242 (1986) Alan R. Liss, Inc.)

[1] = target: T1, Δ^5 -lipoxygenase from rat basophilic leukemia (RBL-1) cells (Rattus norvegicus, UniProt P12527); assay: In vitro test for Δ^5-lipoxygenase inhibitors (5-HETE radioimmunoassay); type: biochemical; settings: for IC50: RBL-1 5-LO, 5-HETE formation, read-out: Inhib. of Δ^5 Lipoxygenase IC50
T1 construct: The isolated cytosolic fraction was stored in liquid N2 for up to 8 weeks without loss of 5-LO enzyme activity; endogenous in cells; host or cells: RBL-1 cells (ATCC CRL 1378), 113,000×g supernatant (cytosol)
T1 sequence (P12527 1-673): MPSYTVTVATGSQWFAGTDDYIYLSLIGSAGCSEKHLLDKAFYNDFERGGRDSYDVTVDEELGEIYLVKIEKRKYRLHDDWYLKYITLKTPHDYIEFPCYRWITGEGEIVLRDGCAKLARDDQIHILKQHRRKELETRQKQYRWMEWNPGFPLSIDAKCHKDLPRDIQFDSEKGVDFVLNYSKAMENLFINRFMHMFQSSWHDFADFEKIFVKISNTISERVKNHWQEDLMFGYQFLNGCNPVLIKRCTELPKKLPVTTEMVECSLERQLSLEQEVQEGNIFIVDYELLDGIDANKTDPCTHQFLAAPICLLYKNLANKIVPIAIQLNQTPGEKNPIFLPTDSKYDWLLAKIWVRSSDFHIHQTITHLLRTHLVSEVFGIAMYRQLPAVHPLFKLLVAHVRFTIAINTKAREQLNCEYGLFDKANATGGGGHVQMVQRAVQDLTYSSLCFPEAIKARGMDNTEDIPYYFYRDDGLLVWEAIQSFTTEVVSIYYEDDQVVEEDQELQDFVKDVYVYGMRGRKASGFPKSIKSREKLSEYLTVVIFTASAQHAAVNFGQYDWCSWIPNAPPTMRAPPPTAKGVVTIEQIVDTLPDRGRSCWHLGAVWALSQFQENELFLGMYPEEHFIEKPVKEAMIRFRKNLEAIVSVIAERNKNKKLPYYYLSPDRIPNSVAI
Method: RBL-1 cells (CRL 1378) were obtained from the American Type Culture Collection, Rockville, MD. DMEM and glutamine were purchased from Flow Labs, McLean, Va. FBS (Gibco, Grand Island, N.Y.) was heat-inactivated for 1 hour at 56° C. Reagents for protein determinations were obtained from Biorad, Rockville Center, N.Y. Arachidonic acid (approx. 99%), ATP (disodium salt), BHT, dextran (clinical grade), tetrasodium EDTA, gelatin, gentamycin sulfate solution, reduced glutathione, 1 M HEPES buffer, indomethacin, NaCl, reduced NADPH, Trizma 7.2, and Trizma 8.5 were purchased from Sigma Chemical, St. Louis, Mo. CaCL2 dihydrate, Norit A charcoal, and citric acid monohydrate were obtained from Fisher Scientific, Pittsburgh, Pa. […] A synthetic 5-HETE standard was supplied by Dr. M. Rosenberger, Dept. of Medicinal Chemistry, Hoffmann La-Roche, Nutley, N.J.; [see Corey, E. J., and Hashimoto, S. (1981) Tet. […] Approximately 7-9 days after thawing, RBL-1 cells growing in log phase were seeded at a density of 7500 viable cells/ml in a closed 89-liter spinner flask. […] RBL-1 cells were harvested by centrifugation at 4° C. at 1500×g for 10 minutes and were washed 3 times with ice cold 0.05M tris-hCl, pH 7.2, tetrasodium EDTA (buffer 1). The cells were washed last in 0.05M Tris-HCl containing 14 μM indomethacin, 1 mM glutathione, 1.5 mM NaCl, and 1 mM tetrasodium EDTA (buffer 2), resuspended at a density of 5×108'/ml approximately 10 ml) and disrupted manually at 4° C. using a 40 ml Dounce (type A pestle) homogenizer. After 5 minutes of homogenization, 95% cell lysis was confirmed by phase contrast microscopy. The broken cells were diluted 1:2 with buffer 2 and centrifuged at 12,380×g for 10 minutes at 4° C. to pellet cellular debris and granules. The 12,380×g supernatant was centrifuged at 113,000×g for 60 minutes to pellet microsomes. The high-speed supernatant (5.9±0.48 mg/ml protein) was frozen immediately in 1 ml aliquots using a dry ice/acetone bath. The isolated cytosolic fraction was stored in liquid N2 for up to 8 weeks without loss of 5-LO enzyme activity. Compounds were dissolved at 25 mM concentration in DMSO, then diluted to final concentrations using 95% ethanol. For a typical enzyme assay, the partially purified 5-LO preparation was preincubated with drug or vehicle for 10 minutes at 30° C. The assay tubes were then transferred at a 37° C. water bath where they received arachidonic acid (8.25 μM final concentration) to initiate 5-LO activity. […] The samples were immediately cooled on ice and neutralized by dilution with 0.05M Tris-HCl, pH 8.5, which contained 25 mg/1 BHT. A boiled cytosol control was placed at the end of each assay to emasure non-enzymatic oxidation of arachidonic acid. […] Under the assay conditions described, the 5-LO catalyzed the conversion of arachidonic acid to 5-HPETE which, as a consequence of peroxidase activity, was reduced to 5-HETE. A specific radioimmunoassay was employed to quantitate the amount (pmoles) of 5-HETE formed during the enzyme reaction. To prepare the immunogen, Dr. M. Rosenberger (Dept. of Medicinal Chemistry) converted the racemic 5-HETE lactone (Corey, E. J., and Hashimoto, S. (1981) Tet. Letters, 22, 299-302) to its hydrazine derivative. The hydrazide was conjugated to thiolated Keyhole Limpet Hemocyanin (Young, […]., and Rokach, J. (1982) Prostaglandins 23, 603-613) using N-ethyl-maleimide as previously described for LTB4 by (Young, R., N, Zomboni, R. and Rokach, J. 91983) Prostaglandins, 26, 605-613). New Zealand White rabbits received multiple intradermal injections on their backs with […] conjugate emulsified in complete Freund's adjuvant. A schedule of injections reported by Salmon (Salmon, J. A. (1978) Prostaglandins, 15, 383-397) was followed. After the monthly i.p. booster injections, blood was obtained from the marginal ear vein 5-7 days later and assessed for antibody titer. […]

| inhibition at 0.1 µM ([1]; read-out: Inhib. of Δ^5 Lipoxygenase, % inhibition at 0.1 μM) [%] | IC50 [1] [nM] | SMILES | inhibition in vivo at 1 mg (ear edema) [%] | inhibition in vivo at 100 mg/kg (Carrageenan pleurisy) [%] |
| --- | --- | --- | --- | --- |
| 95 | – | CCCc1c(OCCCCCCCCc2cccc(O)c2O)ccc(C(C)=O)c1O [1-[2-hydroxy-4-[8-(2,3-dihydroxyphenyl)octyloxy]-3-propylphenyl]ethanone] | 0 | 0 |
| – | 670 | CCCc1c(OCCCCCCc2cccc(O)c2O)ccc(C(=O)OCCN(CC)CC)c1O [4-[6-(2,3-Dihydroxyphenyl)hexyloxy]-2-hydroxy-3-propylbenzoic acid [2-(diethylamino)ethyl]ester hydrochloride] | 48 | 42 |
| – | 460 | CCCc1cc(C(=O)O)cc(CCC)c1OCCCCCCc1cccc(O)c1O [4-[6-(2,3-Dihydroxyphenyl)hexyloxy]-3,5-dipropylbenzoic acid] | 59 | – |
| – | 20 | CCCc1cc(C(=O)O)ccc1OCCCCCCc1cccc(O)c1O [4-[6-(2,3-Dihydroxyphenyl)hexyloxy]-3-propylbenzoic acid] | 52 | 0 |
